What was measured:
[1] = Stability in rat plasma at 37° C.; format: in vitro ADME
Protocol: The stability of the acid labile, lipophilic molecular conjugates to hydrolysis in plasma was evaluated to determine their potential to release the active cancer chemotherapeutic agents into systemic circulation and thereby cause general off target toxicity (“side effects”). The conjugates were incubated with plasma of mouse, rat and human origin.
HPLC grade Methanol from Fisher (Fair lawn, NJ, USA). Part No: A452-4 (074833). HPLC grade Water from Fisher (Fair lawn, NJ, USA). Part No: W5-4 (073352). Drug-free mouse, rat and human plasmas were purchased from Innovative Research Inc. (Southfield, Mich., USA). LIPOSYN® I.V. (30% soybean oil and egg yolk phospholipids, Abbott Laboratories) Fat Emulsion from Hospira, Inc. (Lake Forest, Ill.).
Each drug (ART 198, ART 273, ART 488 and ART 489) was prepared in triplicate in mouse, rat and human plasma individually at […] concentration and vortexed for 1 minute and placed in a water bath at 37° C. at a shake rate of 75 per minute. Samples were drawn at time points of 0, 15, 30, 45, 60, 75, 90, 105, 120, 135, 150, 165, 180, 210, 240, 300, 360 and 480 minutes.
Chromatographic separation of the compounds was performed on a Waters Acquity UPLC™ using a BEH C18 column (1.7 μm, 2.1×50 mm). The mobile phase consisted of Methanol: 0.1% Formic acid (80:20). The flow rate was 0.3 ml/min; the sample injection volume was 5 μL, resulting in a 3 minute run time.
The MS instrumentation consisted of a Waters Micromass Quattro Micro™ triple-quadrupole system (Manchester, UK). The MS system was controlled by a 4.0 version of MassLynx software. Ionization was performed in the positive electrospray ionization mode. MS/MS conditions were the following: capillary voltage 3.02 kV; cone voltage 50 v; extractor voltage 5 v; and RF lens voltage 0.5 v. The source and desolvation temperatures were 100° C. and 400° C. respectively, and the desolvation and cone gas flow were 400 and 30 L/hr, respectively.
The selected mass-to-charge (m/z) ratio transitions of the ART 198 used in the selected ion monitoring (SIM) were: for ART 198, 617 (M+K)^+, for ART 273, 589 (M+K)^+, for ART 488, 913 (M+Na)^+, and for ART 489, 957 (M+Na)^+. The dwell time was set at 200 msec. MS conditions were optimized using direct infusion of standard solutions prepared in methanol and delivered by a syringe pump at a flow rate of 20 μL/min.
Samples of 100 μL were collected at time points of 0, 15, 30, 45, 60, 75, 90, 105, 120, 135, 150, 165, 180, 210, 240, 300, 360 and 480 minutes respectively and the reaction was terminated with methanol. In a separate set of experiments the acid labile, lipophilic molecular conjugates were dissolved in a small amount of ethanol and diluted into a lipid emulsion (Liposyn®) and added to mouse and human plasma before incubation and the hydrolysis of the conjugates was similarly measured. Collected plasma samples of 100 μL containing drug were placed in separate Eppendorf micro centrifuge tubes for processing. Methanol (200 μL) was added to extract the drug using the protein precipitation technique. The micro tubes were then vortex mixed for 10 minutes and centrifuged for 15 minutes at a speed of 10,000 rpm (Eppendorf 5415C centrifuge). The supernatant was collected and filtered using a 0.45 μm filter (Waters 13 mm GHP 0.45 μm) before analysis.
The weighted linear least-squares (1/x) regression was used as the mathematical model. The coefficient (r) for the compounds ranged from 0.9925 to 0.9999. The calibration range was selected according to the concentrations anticipated in the samples to be determined.
Samples were collected at various times and the percent remaining of the acid labile, lipophilic molecular conjugate of the cancer chemotherapeutic agent was determined along with the percent of the chemotherapeutic agent released from the hydrolysis of the conjugate.

[2] = Estimation of maximum tolerated dose (MTD) in the mouse; settings: in vivo, iv, mice, in lipid emulsion (INTRALIPID), survival for 30 day observation period
Protocol: Stock solutions of ART 198 and 273 and their respective acid labile, lipophilic molecular conjugates (ART 489 and ART 488, respectively) were prepared in ethanol and then diluted into a lipid emulsion (INTRALIPID®, 20% Soybean Oil, 1.2% egg yolk phospholipids, 2.25% glycerin and water) and injected intravenously into mice at various doses in milligrams per kilogram. The animals were observed daily for signs of toxicity and/or death for a period of 30 days. The MTD was defined as survival of the dosed mice for the full 30 day observation period.

Row | SMILES | percent remaining of initial drug ([1]; 480 min) | MTD at 30 days [2] | percent remaining of initial drug ([1]; 0 min) | percent remaining of initial drug ([1]; 15 min) | percent remaining of initial drug ([1]; 30 min) | percent remaining of initial drug ([1]; 45 min) | percent remaining of initial drug ([1]; 60 min) | percent remaining of initial drug ([1]; 75 min) | percent remaining of initial drug ([1]; 90 min) | percent remaining of initial drug ([1]; 105 min) | percent remaining of initial drug ([1]; 120 min) | percent remaining of initial drug ([1]; 135 min) | percent remaining of initial drug ([1]; 150 min) | percent remaining of initial drug ([1]; 165 min) | percent remaining of initial drug ([1]; 180 min) | percent remaining of initial drug ([1]; 210 min) | percent remaining of initial drug ([1]; 240 min) | percent remaining of initial drug ([1]; 300 min) | percent remaining of initial drug ([1]; 360 min)
1 | CCCCCCCCCCCCCCCC1OCC(COC(=O)O[C@@H]2C(=O)C=C(C)[C@@H]3C[C@H]4OC(=O)C(OC(=O)CC(O)(C(C)C)C(C)C)C5[C@@H](C)[C@@H](O)[C@@]6(O)OC[C@@]54C6[C@@]23C)O1 (stereo partly shown) [ART 488] | 33.3% | 4 mg/kg | – | – | – | – | – | – | – | – | – | – | – | – | – | – | – | – | –
2 | COC(=O)[C@@]12OC[C@]34[C@H]([C@@H](O)[C@@H]1O)[C@@]1(C)CC(=O)C(O)=C(C)[C@@H]1C[C@H]3OC(=O)C(OC(=O)CC1(O)CCCCC1)[C@@H]24 (stereo partly shown) [ART 198] | 30.1% | 4 mg/kg | 100% | 95.8% | 84.0% | 66.0% | 55.7% | 54.4% | 54.2% | 54.0% | 52.1% | 48.9% | 48.9% | 45.4% | 44.0% | 42.7% | 42.2% | 34.3% | 30.1%
3 | CCCCCCCCCCCCCCCC1OCC(COC(=O)OC2=C(C)[C@@H]3C[C@H]4OC(=O)C(OC(=O)CC5(O)CCCCC5)[C@H]5[C@]6(C(=O)OC)OC[C@]45[C@H]([C@@H](O)[C@@H]6O)[C@@]3(C)CC2=O)O1 (stereo partly shown) [ART 489] | 34.3% | 3.1 mg/kg | 100% | 93.2% | 75.8% | 74.3% | 75.0% | 74.4% | 74.4% | 73.7% | 69.9% | 68.5% | 67.3% | 63.0% | 63.0% | 62.7% | 61.7% | 55.4% | 48.2%

Source: US10172957B2, “Acid-labile lipophilic prodrugs of cancer chemotherapeutic agents” (priority 2011, dated 2019)
